Among the test systems are HL-60(TB) leukemia; HOP-92 NSCLC; MOLT-4 leukemia; NCI-H460 lung; OVCAR-3 ovarian; SR leukemia; SW-620 colon; TK-10 renal; U251 CNS; UACC-257 melanoma; UO-31 renal.
Holding throughout (test): NCI anticancer screen, dose series, 48 h

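1) Cells in 96-well plates. 2) Compound, 48 h, 5 concentrations. 3) Linear interpolation between surrounding doses. 4) Unreached endpoint = highest concentration. TGI marks complete inhibition of growth.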

In the case of `Cc1cc2nc(NS(=O)(=O)c3cc(C)c(Cl)cc3S)[nH]c2cc1C`, the TGI with HL-60(TB) leukemia was > 100 µM; in the experiment on HOP-92 NSCLC it was > 100 µM; with MOLT-4 leukemia, > 100 µM; in the experiment on NCI-H460 lung, 43.1 µM; with OVCAR-3 ovarian, > 100 µM; in the experiment with SR leukemia it was > 100 µM. For the same compound, the TGI in the experiment on SW-620 colon, in the experiment with TK-10 renal, in the experiment on U251 CNS, in the experiment on UACC-257 melanoma and in the experiment with UO-31 renal was > 100 µM each time.
In the case of `COC(=O)C1(Cc2ccc3c(c2)CCC3)Cc2cc3c(cc2C1=O)CCC3` (stereo unspecified), the TGI was 17.9 µM in the experiment on HL-60(TB) leukemia; 42.9 µM in the experiment with HOP-92 NSCLC; 38.7 µM with MOLT-4 leukemia; > 46.4 µM in the experiment on NCI-H460 lung; > 46.4 µM in the experiment on OVCAR-3 ovarian; 33 µM in the experiment on SR leukemia. For the same compound, the TGI in the experiment with SW-620 colon, with TK-10 renal, in the experiment with U251 CNS, in the experiment with UACC-257 melanoma and in the experiment with UO-31 renal was > 46.4 µM in each case.
As for `COc1ccc(C2c3c(-c4ccccc4)nn(-c4ccccc4)c3Oc3ncn(N)c(=N)c32)cc1OC` (stereo unspecified), the TGI with HL-60(TB) leukemia is > 100 µM; in the experiment on HOP-92 NSCLC, 11 µM; in the experiment on MOLT-4 leukemia, > 34.4 µM; in the experiment with NCI-H460 lung it was 3.27 µM; in the experiment with OVCAR-3 ovarian it was 2.95 µM; with SR leukemia, > 26.6 µM. Also, the TGI in the experiment on SW-620 colon is > 25 µM; in the experiment with TK-10 renal it was 4.24 µM; with U251 CNS it was > 100 µM; in the experiment with UACC-257 melanoma, 3.82 µM; in the experiment on UO-31 renal, 3.84 µM.
Regarding `Cc1cc(C)c(N)c(C)c1N`, the TGI in the experiment with HL-60(TB) leukemia, with HOP-92 NSCLC, in the experiment on MOLT-4 leukemia, in the experiment with NCI-H460 lung, in the experiment on OVCAR-3 ovarian and in the experiment on SR leukemia was > 100 µM each time. Besides, the TGI in the experiment with SW-620 colon, with TK-10 renal, with U251 CNS, in the experiment with UACC-257 melanoma and in the experiment on UO-31 renal was > 100 µM in each case.
For `[N-]=[N+]=NC(c1cn(C2CC(O)C(CO)O2)c(=O)[nH]c1=O)C(I)I` (stereo unspecified), the TGI in the experiment with HL-60(TB) leukemia, in the experiment on HOP-92 NSCLC, in the experiment on MOLT-4 leukemia, in the experiment with NCI-H460 lung, with OVCAR-3 ovarian and in the experiment on SR leukemia was > 100 µM each time. The TGI with SW-620 colon, in the experiment with TK-10 renal, with U251 CNS, in the experiment on UACC-257 melanoma and with UO-31 renal was > 100 µM each time.
Take `CCOC(=S)SC/C(=N\OC(C)(C)OC)c1ccccc1`: the TGI was 54.7 µM with HL-60(TB) leukemia; 63.8 µM in the experiment with HOP-92 NSCLC; 65.2 µM in the experiment on MOLT-4 leukemia; > 100 µM in the experiment on NCI-H460 lung; > 100 µM in the experiment on OVCAR-3 ovarian; 35.9 µM in the experiment on SR leukemia. Further, the TGI in the experiment with SW-620 colon was > 100 µM; with TK-10 renal it was > 100 µM; with U251 CNS, > 100 µM; in the experiment on UACC-257 melanoma it was > 100 µM; with UO-31 renal, 95.8 µM.
As for `Cc1ccc(N2C(=O)C(O)=C(C(=O)C(C)(C)C)C2c2ccc([N+](=O)[O-])cc2)cc1` (stereo unspecified), the TGI with HL-60(TB) leukemia stood at 33.9 µM; in the experiment with HOP-92 NSCLC, 59.5 µM; in the experiment on MOLT-4 leukemia it was 31.5 µM; in the experiment on NCI-H460 lung, 30.5 µM; in the experiment with OVCAR-3 ovarian, 93.5 µM; in the experiment with SR leukemia, 24.7 µM. For the same compound, the TGI in the experiment on TK-10 renal is 90.8 µM; in the experiment on U251 CNS, > 100 µM; in the experiment with UACC-257 melanoma, 34.8 µM; with UO-31 renal it was 89.3 µM.
Turning to `Nc1nc(SCc2ccccc2[N+](=O)[O-])c2[nH]cnc2n1`, the TGI in the experiment with HL-60(TB) leukemia was > 86.1 µM; in the experiment on HOP-92 NSCLC, 9.06 µM; in the experiment on MOLT-4 leukemia it was > 100 µM; in the experiment with NCI-H460 lung, > 76.1 µM; in the experiment on OVCAR-3 ovarian, > 100 µM; with SR leukemia it was > 100 µM. The TGI with SW-620 colon is > 100 µM; in the experiment with TK-10 renal, > 62.7 µM; with U251 CNS, > 100 µM; in the experiment with UACC-257 melanoma, > 75.9 µM; in the experiment on UO-31 renal it was > 100 µM.
Consider `CC(Nc1cc(=O)n(C)c(=O)[nH]1)c1ccccc1` (stereo unspecified), for which the TGI with HL-60(TB) leukemia, in the experiment with HOP-92 NSCLC, with MOLT-4 leukemia, with NCI-H460 lung, in the experiment with OVCAR-3 ovarian and with SR leukemia was > 100 µM throughout. Further, the TGI with SW-620 colon, with TK-10 renal, with U251 CNS, with UACC-257 melanoma and in the experiment with UO-31 renal was > 100 µM throughout.
With `CS(=O)(=O)OC1CCN(C2(c3cccc(O)c3)CCCCC2)CC1`, the TGI in the experiment with HL-60(TB) leukemia was 38.2 µM; in the experiment on HOP-92 NSCLC it was > 100 µM; in the experiment on MOLT-4 leukemia, 94.1 µM; in the experiment on NCI-H460 lung, > 100 µM; in the experiment on OVCAR-3 ovarian, > 100 µM; in the experiment with SR leukemia it was 49.4 µM. For the same compound, the TGI in the experiment with SW-620 colon, in the experiment with TK-10 renal, in the experiment on U251 CNS, in the experiment with UACC-257 melanoma and in the experiment on UO-31 renal was > 100 µM each time.
Turning to `CC1=NN(c2cccc(Cl)c2)C2(C1)SCC(=O)N2c1nc2ccccc2s1` (stereo unspecified), the TGI was 43.1 µM in the experiment with HL-60(TB) leukemia; > 100 µM with HOP-92 NSCLC; 38.9 µM with MOLT-4 leukemia; 58.8 µM in the experiment with NCI-H460 lung; 58.9 µM in the experiment with OVCAR-3 ovarian; 37.8 µM in the experiment on SR leukemia. Further, the TGI in the experiment with SW-620 colon is > 100 µM; in the experiment with TK-10 renal it was 74.1 µM; with U251 CNS it was 75.2 µM; in the experiment on UACC-257 melanoma, 57.7 µM; with UO-31 renal, 57.4 µM.
In the case of `CNc1nc(=O)c(C#N)c(-c2ccc(C)cc2)s1`, the TGI in the experiment with HL-60(TB) leukemia, in the experiment with HOP-92 NSCLC, in the experiment on MOLT-4 leukemia, in the experiment with NCI-H460 lung, with OVCAR-3 ovarian and with SR leukemia was > 100 µM in each case. Besides, the TGI in the experiment with SW-620 colon, in the experiment on TK-10 renal, in the experiment with U251 CNS, in the experiment with UACC-257 melanoma and in the experiment on UO-31 renal was > 100 µM throughout.
